Data published in ChEMBL document CHEMBL1123366, “Antiinflammatory and aldose reductase inhibitory activity of some tricyclic arylacetic acids” (J Med Chem, 1986).

How the values were obtained:
Mus musculus = species on record: Mus musculus; assay: Analgesic activity in mice by mouse phenylquinone writhing assay relative to aspirin.; assay type: functional
Rattus norvegicus = species on record: Rattus norvegicus; assay: Inhibition of carrageenan-induced inflammation of rat paw relative to phenylbutazone.; assay type: functional

| Compound | Activity (Mus musculus) | Activity (Rattus norvegicus) |
| --- | --- | --- |
| O=C(O)Cc1ccc2c(c1)SCc1ccccc1C2=O [TIOPINAC] | 14 | 40 |
| O=C(O)Cc1ccc2c(c1)CCc1cc(O)ccc1C2=O | ~0.6 | ~0.4 |
| O=C(O)Cc1ccc2c(=O)c3ccccc3ccc2c1 | 2 | 6 |
| O=C1Cc2ccc3c(c2O1)CCc1ccccc1C3=O | ~1 | 3 |
| O=C(O)c1ccccc1Nc1cccc(C(F)(F)F)c1 [FLUFENAMIC ACID] | <0.4 | ~6 |
| CC(C(=O)O)c1cccc(C(=O)c2ccccc2)c1 (centres undefined) [KETOPROFEN] | 60 | 9 |
| COc1ccc2c(c1)c(CC(=O)O)c(C)n2C(=O)c1ccc(Cl)cc1 [INDOMETHACIN] | 60 | 16 |
| CC(C(=O)O)c1cc(O)c2c(c1)CCc1ccccc1C2=O (centres undefined) | 4 | ~60 |
| O=C(O)Cc1cc(O)c2c(=O)c3ccccc3ccc2c1 | ~1 | 5 |
| O=C(O)Cc1ccc2c(c1O)CCc1ccccc1C2=O | ~8 | 15 |
| O=C(O)Cc1ccc2c(c1)CCc1cccc(O)c1C2=O | >=0.4 | <0.2 |
| CC(C(=O)O)c1ccc2c(=O)c3ccccc3ccc2c1 (centres undefined) | 20 | 68 |
| O=C(O)Cc1ccc2c(c1)OCc1ccccc1C2=O [OXEPINAC] | 4 | ~15 |
| O=C(O)Cc1cc(O)c2c(c1)CCc1ccccc1C2=O | 4 | ~20 |
| CC(C(=O)O)c1cc(O)c2c(=O)c3ccccc3ccc2c1 (centres undefined) | ~6 | ~30 |
| O=C(O)Cc1ccc2c(c1)CCc1ccccc1C2=O | 1.5 | 7 |
| O=C(O)Cc1ccc2c(c1)CCc1ccc(O)cc1C2=O | ~0.2 | <0.2 |
